Assay results: patent US20240415894A1, “MITOCHONDRIAL AUGMENTATION THERAPY WITH STEM CELLS ENRICHED WITH FUNCTIONAL MITOCHONDRIA” (Minovia Therapeutics Ltd., priority 2018, published 2024)

Test system: Mouse fibroblast cells (3T3)
Assay: ATP level in Rotenone-treated mouse fibroblast cells (ATPlite kit)
Format: cell-based
Details: 0.5 μM Rotenone for 4 hours; vs control cells
Description: Mouse fibroblast cells (104, 3T3) were either not treated (control) or treated with 0.5 μM Rotenone (Rotenone, mitochondrial complex I irreversible inhibitor, CAS number 83-79-4) for 4 hours, washed, and further treated with 0.02 mg/ml mouse placental mitochondria (Rotenone+Mitochondria) for 3 hours. The cells were washed and ATP level was determined using the Perkin Elmer ATPlite kit (FIG. 2), as previously shown in WO 2016/135723.

For `C=C(C)[C@H]1Cc2c(ccc3c2O[C@@H]2COc4cc(OC)c(OC)cc4[C@@H]2C3=O)O1` [Rotenone], the “decrease of ATP levels” value was “about 50%”.
